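Interpolation was linear, between the two tested concentrations surrounding the appropriate level; five concentrations were tested over 48 hours in 96-well plates. Abbreviation: GI50, concentration required for 50% inhibition of growth.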 Active and inactive are the calls of the source. Rule as the data show it: active = GI50 up to about 1.1 µM and inactive = higher.
Columns and labels:
Assay in all cases: DTP human tumour cell line panel, 48 h
RXF 393 = system: RXF 393
HOP-62 = system: HOP-62
CAKI-1 = system: CAKI-1
HCT-116 = system: HCT-116
SNB-75 = system: SNB-75
SR = system: SR
SF-539 = system: SF-539
NCI-H460 = system: NCI-H460
U-251 = system: U-251
NCI-H23 = system: NCI-H23
MOLT-4 = system: MOLT-4
PC-3 = system: PC-3
K562 = system: K562
Hs-578T = system: Hs-578T
SK-MEL-5 = system: SK-MEL-5
TK-10 = system: TK-10
SN12C = system: SN12C
BT-549 = system: BT-549
HL-60 = system: HL-60
T47D = system: T47D
COLO 205 = system: COLO 205
MDA-N = system: MDA-N
OVCAR-3 = system: OVCAR-3
EKVX = system: EKVX
DU-145 = system: DU-145
A498 = system: A498
UACC-257 = system: UACC-257
OVCAR-4 = system: OVCAR-4
NCI-H522 = system: NCI-H522
MCF7 = system: MCF7
OVCAR-5 = system: OVCAR-5
OVCAR-8 = system: OVCAR-8
HCT-15 = system: HCT-15
NCI-H226 = system: NCI-H226
786-0 = system: 786-0
M14 = system: M14
IGROV-1 = system: IGROV-1
ACHN = system: ACHN
NCI/ADR-RES = system: NCI/ADR-RES
SW-620 = system: SW-620
LOX IMVI = system: LOX IMVI
MDA-MB-231 = system: MDA-MB-231
SF-295 = system: SF-295
UACC-62 = system: UACC-62
Malme-3M = system: Malme-3M
SF-268 = system: SF-268
KM12 = system: KM12
UO-31 = system: UO-31
CCRF-CEM = system: CCRF-CEM
SNB-19 = system: SNB-19
SK-MEL-2 = system: SK-MEL-2
HT-29 = system: HT-29
HCC 2998 = system: HCC 2998
MDA-MB-435 = system: MDA-MB-435
RPMI-8226 = system: RPMI-8226
SK-OV-3 = system: SK-OV-3
HOP-92 = system: HOP-92
SK-MEL-28 = system: SK-MEL-28
A549 = system: A549

CC(C)(C)c1ccc2c(c1)CNCCNCc1cc(C(C)(C)C)ccc1OCC1(CO2)COc2ccc(C(C)(C)C)cc2CNCCNCc2cc(C(C)(C)C)ccc2OC1 was tested, and the GI50 (RXF 393) was 1420 nM (inactive), the GI50 (HOP-62) was 1660 nM (inactive) and the GI50 (CAKI-1) was 1410 nM (inactive). For the same compound, the GI50 (HCT-116) was 288 nM (active), the GI50 (SNB-75) was 1510 nM (inactive) and the GI50 (SR) was 129 nM (active). The GI50 (SF-539) was 933 nM (active), the GI50 (NCI-H460) was 276 nM (active) and the GI50 (U-251) was 242 nM (active). For the same compound, the GI50 (NCI-H23) was 948 nM (active), the GI50 (MOLT-4) was 225 nM (active) and the GI50 (PC-3) was 1580 nM (inactive). For the same compound, the GI50 (K562) was 213 nM (active), the GI50 (Hs-578T) was 1060 nM (active) and the GI50 (SK-MEL-5) was 1230 nM (inactive). For the same compound, the GI50 (TK-10) was 1850 nM (inactive), the GI50 (SN12C) was 404 nM (active) and the GI50 (BT-549) was 1710 nM (inactive). The GI50 (HL-60) was 179 nM (active), the GI50 (T47D) was 1910 nM (inactive) and the GI50 (COLO 205) was 649 nM (active). The GI50 (MDA-N) was 649 nM (active), the GI50 (OVCAR-3) was 1610 nM (inactive) and the GI50 (EKVX) was 1270 nM (inactive). For the same compound, the GI50 (DU-145) was 1730 nM (inactive), the GI50 (A498) was 857 nM (active) and the GI50 (UACC-257) was 1540 nM (inactive). For the same compound, the GI50 (OVCAR-4) was 1530 nM (inactive), the GI50 (NCI-H522) was 284 nM (active) and the GI50 (MCF7) was 461 nM (active). The GI50 (OVCAR-5) was 1720 nM (inactive), the GI50 (OVCAR-8) was 935 nM (active) and the GI50 (HCT-15) was 931 nM. For the same compound, the GI50 (NCI-H226) was 1550 nM (inactive), the GI50 (786-0) was 250 nM (active) and the GI50 (M14) was 467 nM (active). The GI50 (IGROV-1) was 1280 nM (inactive), the GI50 (ACHN) was 1600 nM (inactive) and the GI50 (NCI/ADR-RES) was 1630 nM (inactive). The GI50 (SW-620) was 501 nM (active), the GI50 (LOX IMVI) was 243 nM (active) and the GI50 (MDA-MB-231) was 394 nM (active). For the same compound, the GI50 (SF-295) was 968 nM (active), the GI50 (UACC-62) was 1400 nM (inactive) and the GI50 (Malme-3M) was 1410 nM (inactive). The GI50 (SF-268) was 1780 nM (inactive), the GI50 (KM12) was 388 nM (active) and the GI50 (UO-31) was 1800 nM (inactive). For the same compound, the GI50 (CCRF-CEM) was 200 nM (active), the GI50 (SNB-19) was 935 nM (active) and the GI50 (SK-MEL-2) was 1510 nM (inactive). The GI50 (HT-29) was 665 nM (active), the GI50 (HCC 2998) was 335 nM (active) and the GI50 (MDA-MB-435) was 271 nM (active). The GI50 (RPMI-8226) was 372 nM (active), the GI50 (SK-OV-3) was 1840 nM (inactive) and the GI50 (HOP-92) was 1260 nM (inactive). For the same compound, the GI50 (SK-MEL-28) was 1710 nM (inactive) and the GI50 (A549) was 433 nM (active).

In the case of Cc1ccc(/C=N/Nc2nncc3ccccc23)s1, the GI50 (RXF 393) is reported as > 100000 nM (inactive), the GI50 (HOP-62) is reported as > 46700 nM (inactive) and the GI50 (CAKI-1) is reported as > 100000 nM (inactive). For the same compound, the GI50 (HCT-116) was 59600 nM (inactive), the GI50 (SNB-75) was > 44200 nM (inactive) and the GI50 (SR) was > 100000 nM (inactive). The GI50 (SF-539) was 52600 nM (inactive), the GI50 (NCI-H460) was > 100000 nM (inactive) and the GI50 (U-251) was 53200 nM (inactive). For the same compound, the GI50 (NCI-H23) was > 83800 nM (inactive), the GI50 (MOLT-4) was > 100000 nM (inactive) and the GI50 (PC-3) was 96800 nM (inactive). The GI50 (K562) was > 100000 nM (inactive), the GI50 (Hs-578T) was 35600 nM (inactive) and the GI50 (SK-MEL-5) was > 100000 nM (inactive). For the same compound, the GI50 (TK-10) was > 52000 nM (inactive), the GI50 (SN12C) was > 100000 nM (inactive) and the GI50 (BT-549) was > 55800 nM (inactive). The GI50 (HL-60) was > 100000 nM (inactive), the GI50 (T47D) was > 100000 nM (inactive) and the GI50 (COLO 205) was > 100000 nM (inactive). The GI50 (MDA-N) was > 61400 nM (inactive), the GI50 (OVCAR-3) was > 55800 nM (inactive) and the GI50 (EKVX) was > 100000 nM (inactive). For the same compound, the GI50 (DU-145) was > 31600 nM (inactive), the GI50 (A498) was > 100000 nM (inactive) and the GI50 (UACC-257) was > 100000 nM (inactive). The GI50 (OVCAR-4) was 26300 nM (inactive), the GI50 (NCI-H522) was 31500 nM (inactive) and the GI50 (MCF7) was 19500 nM (inactive). The GI50 (OVCAR-5) was > 100000 nM (inactive), the GI50 (OVCAR-8) was 65200 nM (inactive) and the GI50 (HCT-15) was over 100000 nM. For the same compound, the GI50 (NCI-H226) was > 69200 nM (inactive), the GI50 (786-0) was > 52200 nM (inactive) and the GI50 (M14) was > 67500 nM (inactive). The GI50 (IGROV-1) was > 61000 nM (inactive), the GI50 (ACHN) was > 100000 nM (inactive) and the GI50 (NCI/ADR-RES) was 48000 nM (inactive). For the same compound, the GI50 (SW-620) was > 100000 nM (inactive), the GI50 (LOX IMVI) was > 61200 nM (inactive) and the GI50 (MDA-MB-231) was 33000 nM (inactive). The GI50 (SF-295) was 35900 nM (inactive), the GI50 (UACC-62) was > 52100 nM (inactive) and the GI50 (Malme-3M) was > 75900 nM (inactive). For the same compound, the GI50 (SF-268) was > 58100 nM (inactive), the GI50 (KM12) was > 46200 nM (inactive) and the GI50 (UO-31) was > 100000 nM (inactive). The GI50 (CCRF-CEM) was > 100000 nM (inactive), the GI50 (SNB-19) was > 100000 nM (inactive) and the GI50 (SK-MEL-2) was > 95300 nM (inactive). For the same compound, the GI50 (HT-29) was > 100000 nM (inactive), the GI50 (HCC 2998) was > 72800 nM (inactive) and the GI50 (MDA-MB-435) was 97100 nM (inactive). For the same compound, the GI50 (RPMI-8226) was > 100000 nM (inactive), the GI50 (SK-OV-3) was > 84100 nM (inactive) and the GI50 (HOP-92) was > 100000 nM (inactive). The GI50 (SK-MEL-28) was > 100000 nM (inactive) and the GI50 (A549) was > 100000 nM (inactive).

— ChEMBL document CHEMBL1201862, “PubChem BioAssay data set” (2004)
